Laboratory results published in patent US8586588B2, “Aryl pyridazinone derivatives and their use as H3 receptor ligands” (Cephalon, Inc., priority 2006, dated 2013).
Counter-ions that a name gives are not always drawn.

Target: T1, human H3 receptor (Homo sapiens, UniProt Q9Y5N1)
T1 construct: expressed in transfected cells
Test: Human H3 radioligand binding ([3H]-N-alpha-methylhistamine, CHO cell membranes, SPA)
Details: Table B, binding constant as letter class
Outline: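 CHO cell membranes expressing human H3 (10 μg protein/well) incubated 4 h at room temperature, in the dark, with ~1 nM [3H]-N-alpha-methylhistamine, compounds (0.01 nM-30 μM) and SPA beads in 50 mM Tris HCl pH 7.4, 5 mM MgCl2, 0.1% BSA. Non-specific binding defined with 10 μM clobenpropit.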

T1 sequence (Q9Y5N1 whole entry): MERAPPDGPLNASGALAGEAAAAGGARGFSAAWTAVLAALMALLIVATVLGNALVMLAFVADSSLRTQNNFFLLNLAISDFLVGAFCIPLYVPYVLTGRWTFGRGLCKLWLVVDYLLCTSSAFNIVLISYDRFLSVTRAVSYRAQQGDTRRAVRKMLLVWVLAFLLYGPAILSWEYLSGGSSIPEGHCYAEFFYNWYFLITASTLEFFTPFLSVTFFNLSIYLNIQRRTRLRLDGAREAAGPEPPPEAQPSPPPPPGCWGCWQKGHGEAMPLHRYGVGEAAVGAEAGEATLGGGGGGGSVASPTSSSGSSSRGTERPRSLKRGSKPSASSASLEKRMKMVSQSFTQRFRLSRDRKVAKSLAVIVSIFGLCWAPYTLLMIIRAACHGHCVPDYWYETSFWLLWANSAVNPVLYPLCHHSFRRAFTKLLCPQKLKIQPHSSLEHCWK

`O=C1NN=C(c2ccc(OC3CCN(C4CCCC4)CC3)cc2)C2CC12` (centres unmarked) [Example 261, 5-[4-(1-Cyclopentyl-piperidin-4-yloxy)-phenyl]-3,4-diaza-bicyclo[4.1.0]hept-4-en-2-one] and `C[C@@H]1CCCN1CCCOc1ccc(-n2nc(C3CC3)ccc2=O)cc1` [Example 262, 6-Cyclopropyl-2-{4-[3-((R)-2-methyl-pyrrolidin-1-yl)-propoxy]-phenyl}-2H-pyridazin-3-one] fall in the same range of Ki: 0.1 to 100 nM for the first, 0.1 to 100 nM for the second.

Test system: not given
Test: not given
Details: not given

Compared with `C[C@@H]1CCCN1CCCOc1ccc(-c2ccc(=O)n(C)n2)cc1` (as salt: HCl) [Example 1, 2-Methyl-6-{4-[3-((R)-2-methyl-pyrrolidin-1-yl)-propoxy]-phenyl}-2H-pyridazin-3-one], `Cn1nc(-c2ccc(OCCCN3CCC[C@H]3CO)cc2)ccc1=O` (as salt: HCl) [Example 14, 6-{4-[3-((S)-2-Hydroxymethyl-pyrrolidin-1-yl)-propoxy]-phenyl}-2-methyl-2H-pyridazin-3-one] is lower in melting point: 183 to 185 °C for the first, 169 °C for the second.

Compared with `Cn1nc(-c2ccc(OCCCN3CCCCC3)cc2)ccc1=O` (as salt: HCl) [Example 2, 2-Methyl-6-[4-(3-piperidin-1-yl-propoxy)-phenyl]-2H-pyridazin-3-one], `CC(C)n1nc(-c2ccc(OCCCN3CCCCC3)cc2)ccc1=O` (as salt: HCl) [Example 3, 2-Isopropy1-6-[4-(3-piperidin-1-yl-propoxy)-pheny1]-2H-pyridazin-3-one] is lower in melting point: 200 to 201 °C for the first, 118 to 122 °C for the second.

First: C[C@@H]1CCCN1CCCOc1ccc(-c2ccc(=O)n(C)n2)cc1F (as salt: HCl) [Example 7, 6-{3-Fluoro-4-[3-((R)-2-methyl-pyrrolidin-1-yl)-propoxy]-phenyl}-2-methyl-2H-pyridazin-3-one]
Second: Cc1cc(-c2ccc(OCCCN3CCC[C@H]3C)cc2)nn(C)c1=O (as salt: HCl) [Example 40, 2,4-Dimethyl-6-{4-[3-((R)-2-methyl-pyrrolidin-1-yl)-propoxy]-phenyl}-2H-pyridazin-3-one]
The melting point of the first is lower: 140 to 142 °C for the first, 175 to 176 °C for the second.

First: O=c1ccc(-c2ccc(OCCCN3CCCCC3)c(F)c2)nn1-c1ccccc1 (as salt: HCl) [Example 10, 6-[3-Fluoro-4-(3-piperidin-1-yl-propoxy)-phenyl]-2-phenyl-2H-pyridazin-3-one]
Second: C[C@@H]1CCCN1CCCOc1ccc(-c2ccc(=O)n(-c3ccccc3)n2)cc1 (as salt: HCl) [Example 20, 6-{4-[3-((R)-2-Methyl-pyrrolidin-1-yl)-propoxy]-phenyl}-2-phenyl-2H-pyridazin-3-one]
The melting point of the first is higher: 230 to 232 °C for the first, 82 to 86 °C for the second.

First: C[C@@H]1CCCN1CCCOc1ccc(-c2n[nH]c(=O)c3c2CCC3)cc1 (as salt: HCl) [Example 12, 4-{4-[3-((R)-2-Methyl-pyrrolidin-1-yl)-propoxy]-phenyl}-2,5,6,7-tetrahydro-cyclopenta[d]pyridazin-1-one]
Second: C[C@@H]1CCCN1CCCOc1ccc(C2=NN(c3ccccc3)C(=O)CC2)cc1 (as salt: HCl) [Example 19]
The melting point of the first is lower: 147 °C for the first, 213 to 215 °C for the second.

First: C[C@H](COc1ccc(-c2ccc(=O)n(C)n2)cc1)CN1CCC[C@H]1C (as salt: HCl) [Example 13, 2-Methyl-6-{4-[(S)-2-methyl-3-((R)-2-methyl-pyrrolidin-1-yl)-propoxy]-phenyl}-2H-pyridazin-3-one]
Second: Cn1nc(-c2ccc(OCCCN3CCC[C@@H]3CO)cc2)ccc1=O (as salt: HCl) [Example 15, 6-{4-[3-((R)-2-Hydroxymethyl-pyrrolidin-1-yl)-propoxy]-phenyl}-2-methyl-2H-pyridazin-3-one]
The melting point of the first is higher: 188 to 190 °C for the first, 166 to 167 °C for the second.

First: C[C@@H]1CCCN1CCCOc1ccc(C2=NN(Cc3ccccc3)C(=O)CC2)cc1 (as salt: HCl) [Example 17, 2-Benzyl-6-{4-[3-((R)-2-methyl-pyrrolidin-1-yl)-propoxy]-phenyl}-4,5-dihydro-2H-pyridazin-3-one]
Second: C[C@@H]1CCCN1CCCOc1ccc(-c2ccc(=O)n(Cc3ccccc3)n2)cc1 (as salt: HCl) [Example 18, 2-Benzyl-6-{4-[3-((R)-2-methyl-pyrrolidin-1-yl)-propoxy]-phenyl}-2H-pyridazin-3-one]
The melting point of the first is lower: 56 to 58 °C for the first, 228 to 230 °C for the second.

First: CC1CCC(C)N1CCCOc1ccc(-c2nn(C(C)C)c(=O)c3ccsc23)cc1 (centres unmarked) (as salt: HCl) [Example 23, 7-{4-[3-(2,5-Dimethyl-pyrrolidin-1-yl)-propoxy]-phenyl}-5-isopropyl-5H-thieno[2,3-d]pyridazin-4-one]
Second: CC(C)n1nc(-c2ccc(OCCCN3CCCC3)cc2)c2sccc2c1=O (as salt: HCl) [Example 29, 5-Isopropyl-7-[4-(3-pyrrolidin-1-yl-propoxy)-phenyl]-5H-thieno[2,3-d]-pyridazin-4-one]
The melting point of the first is higher: 158 to 159 °C for the first, 144 °C for the second.

First: CC(C)n1nc(-c2ccc(OCCCN3CCCCC3)cc2)c2sccc2c1=O (as salt: HCl) [Example 24, 5-Isopropyl-7-[4-(3-piperidin-1-yl-propoxy)-phenyl]-5H-thieno[2,3-d]pyridazin-4-one]
Second: CC(C)n1nc(-c2ccc(OCCCN3CCCC(C)(C)C3)cc2)c2sccc2c1=O (as salt: HCl) [Example 25, 7-{4-[3-(3,3-Dimethyl-piperidin-1-yl)-propoxy]-phenyl}-5-isopropyl-5H-thieno[2,3-d]pyridazin-4-one]
The melting point of the first is higher: 195 to 196 °C for the first, 100 to 102 °C for the second.

Compared with `CCN(CC)CCCOc1ccc(-c2nn(C(C)C)c(=O)c3ccsc23)cc1` (as salt: HCl) [Example 28, 7-[4-(3-Diethylamino-propoxy)-phenyl]-5-isopropyl-5H-thieno[2,3-d]pyridazin-4-one], `CCCn1nc(-c2ccc(OCCCN3CCC[C@H]3C)cc2)c2sccc2c1=O` (as salt: HCl) [Example 32, 7-{4-[3-((R)-2-Methyl-pyrrolidin-1-yl)-propoxy]phenyl}-5-propyl-5H-thieno[2,3-d]pyridazin-4-one] is lower in melting point: 188 to 190 °C for the first, 151 to 153 °C for the second.

First: CCCn1nc(-c2ccc(OCCCN3CCC(C)CC3)cc2)c2sccc2c1=O (as salt: HCl) [Example 34, 7-{4-[3-(4-Methyl-piperidin-1-yl)-propoxy]-phenyl}-5-propyl-5H-thieno[2,3-d]pyridazin-4-one]
Second: CCCn1nc(-c2ccc(OCCCN3CCC(N(C)C)CC3)cc2)c2sccc2c1=O (as salt: HCl) [Example 35, 7-{4-[3-(4-Dimethylamino-piperidin-1-yl)-propoxy]-phenyl}-5-propyl-5H-thieno[2,3-d]pyridazin-4-one]
The melting point of the first is lower: 168 to 170 °C for the first, 207 to 209 °C for the second.

Compared with `O=c1c2ccsc2c(-c2ccc(OCCCN3CCCCC3)cc2)nn1Cc1ccc(Cl)cc1` (as salt: HCl) [Example 37, 5-(4-Chloro-benzyl)-7-[4-(3-piperidin-1-yl-propoxy)-phenyl]-5H-thieno[2,3-d]pyridazin-4-one], `C[C@@H]1CCCN1CCCOc1ccc(-c2nn(Cc3ccc(Cl)cc3)c(=O)c3ccsc23)cc1` (as salt: HCl) [Example 38, 5-(4-Chloro-benzyl)-7-{4-[3-((R)-2-methyl-pyrrolidin-1-yl)-propoxy]-phenyl}-5H-thieno[2,3-d]pyridazin-4-one] is lower in melting point: 227 to 229 °C for the first, 223 to 224 °C for the second.

Compared with `Cc1cc(-c2ccc(OCCCN3CCCCC3)cc2)nn(C(C)C)c1=O` (as salt: HCl) [Example 42, 2-Isopropyl-4-methyl-6-[4-(3-piperidin-1-yl-propoxy)-phenyl]-2H-pyridazin-3-one], `Cc1cc(-c2ccc(OCCCN3CCC[C@H]3C)cc2)nn(Cc2ccccc2)c1=O` (as salt: HCl) [Example 43, 2-Benzyl-4-methyl-6-{4-[3-((R)-2-methyl-pyrrolidin-1-yl)-propoxy]-phenyl}-2H-pyridazin-3-one] is lower in melting point: 197 to 198 °C for the first, 190 to 192 °C for the second.

In the case of `COC[C@@H]1CCCN1CCCOc1ccc(-c2nn(C(C)C)c(=O)c3ccsc23)cc1` (as salt: HCl) [Example 26, 5-Isopropyl-7-{4-[3-((S)-2-methoxymethyl-pyrrolidin-1-yl)propoxy]-phenyl}-5H-thieno[2,3-d]pyridazin-4-one], the melting point is reported as 83 °C (dec.).
For `CC(C)n1nc(-c2ccc(OCCCN3CCC(N4CCCC4)CC3)cc2)c2sccc2c1=O` (as salt: HCl) [Example 30, 5-Isopropyl-7-{4-[3-(4-pyrrolidin-1-yl-piperidin-1-yl)-propoxy]-phenyl}-5H-thieno[2,3-d]pyridazin-4-one], the melting point was 283 °C (dec.).
For `CC(C)n1nc(-c2ccc(OCCCN3[C@H](C)CC[C@H]3C)cc2)c2sccc2c1=O` (as salt: HCl) [Example 31, 7-{4-[3-((2R,5R)-2,5-Dimethyl-pyrrolidin-1-yl)-propoxy]-phenyl}-5-isopropyl-5H-thieno[2,3-d]pyridazin-4-one], the melting point was 106 °C (dec.).
With `CCCn1nc(-c2ccc(OCCCN3[C@H](C)CC[C@H]3C)cc2)c2sccc2c1=O` (as salt: HCl) [Example 33, 7-{4-[3-((2R,5R)-2,5-Dimethyl-pyrrolidin-1-yl)-propoxy]-phenyl)-5-propyl-5H-thieno[2,3-d]pyridazin-4-one] the melting point was 84 °C (dec.).
In the case of `CCCn1nc(-c2ccc(OCCCN3CCC[C@H]3CN3CCCC3)cc2)c2sccc2c1=O` (as salt: HCl) [Example 36, 5-Propyl-7-{4-[3-((S)-2-pyrrolidin-1-ylmethyl-pyrrolidin-1-yl)-propoxy]-phenyl}-5H-thieno[2,3-d]pyridazin-4-one], the melting point is reported as 123 °C (dec.).

Target: T2, rat histamine H3 receptor (Rattus norvegicus, UniProt Q9QYN8)
T2 construct: encoding the entire 445-amino-acid rat histamine H3 receptor; expressed in transfected cells
T2 sequence (Q9QYN8 whole entry): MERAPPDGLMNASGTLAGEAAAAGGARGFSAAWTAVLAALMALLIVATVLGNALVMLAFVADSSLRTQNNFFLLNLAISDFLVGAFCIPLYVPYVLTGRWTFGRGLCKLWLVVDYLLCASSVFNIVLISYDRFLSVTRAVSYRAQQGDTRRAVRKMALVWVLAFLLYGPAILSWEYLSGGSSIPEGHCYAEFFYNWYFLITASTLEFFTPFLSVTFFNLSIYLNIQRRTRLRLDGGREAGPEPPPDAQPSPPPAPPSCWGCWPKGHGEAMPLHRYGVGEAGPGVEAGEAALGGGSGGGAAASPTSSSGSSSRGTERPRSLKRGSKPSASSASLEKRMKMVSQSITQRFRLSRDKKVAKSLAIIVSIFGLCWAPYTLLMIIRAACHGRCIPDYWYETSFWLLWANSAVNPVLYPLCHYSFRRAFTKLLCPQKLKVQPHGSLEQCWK
Test: Rat H3 radioligand binding ([3H]-N-alpha-methylhistamine, CHO-A3 cell membranes, SPA)
Details: Table B, binding constant as letter class; read-out: rat H3 Ki
Outline: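 Membranes from CHO-A3 cells stably expressing rat H3 (10 μg protein) incubated 4 h at room temperature in 50 mM Tris-HCl pH 7.4, 5 mM MgCl2, 0.1% BSA with ~1 nM [3H]-N-alpha-methylhistamine and compound (0.01 nM-30 μM). Bound radioligand read by scintillation proximity; nonspecific binding with 10 μM clobenpropit.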

Compared with `O=C1NN=C(c2ccc(OC3CCN(C4CCCC4)CC3)cc2)C2CC12` (centres unmarked) [Example 261, 5-[4-(1-Cyclopentyl-piperidin-4-yloxy)-phenyl]-3,4-diaza-bicyclo[4.1.0]hept-4-en-2-one], `C[C@@H]1CCCN1CCCOc1ccc(-n2nc(C3CC3)ccc2=O)cc1` [Example 262, 6-Cyclopropyl-2-{4-[3-((R)-2-methyl-pyrrolidin-1-yl)-propoxy]-phenyl}-2H-pyridazin-3-one] is higher in Ki: 0.1 to 100 nM for the first, 101 to 500 nM for the second.
